# Values of other authors, collected in US20180344676A1, “TOPICAL ANALGESIC PAIN RELIEF FORMULATIONS, MANUFACTURE AND METHODS OF USE THEREOF” (priority 2015, published 2018).
# Tests used:
# hTRPV2 = biological target: T1, hTRPV2 (Homo sapiens, UniProt Q9Y5S1)
# T1 sequence (Q9Y5S1 1-764): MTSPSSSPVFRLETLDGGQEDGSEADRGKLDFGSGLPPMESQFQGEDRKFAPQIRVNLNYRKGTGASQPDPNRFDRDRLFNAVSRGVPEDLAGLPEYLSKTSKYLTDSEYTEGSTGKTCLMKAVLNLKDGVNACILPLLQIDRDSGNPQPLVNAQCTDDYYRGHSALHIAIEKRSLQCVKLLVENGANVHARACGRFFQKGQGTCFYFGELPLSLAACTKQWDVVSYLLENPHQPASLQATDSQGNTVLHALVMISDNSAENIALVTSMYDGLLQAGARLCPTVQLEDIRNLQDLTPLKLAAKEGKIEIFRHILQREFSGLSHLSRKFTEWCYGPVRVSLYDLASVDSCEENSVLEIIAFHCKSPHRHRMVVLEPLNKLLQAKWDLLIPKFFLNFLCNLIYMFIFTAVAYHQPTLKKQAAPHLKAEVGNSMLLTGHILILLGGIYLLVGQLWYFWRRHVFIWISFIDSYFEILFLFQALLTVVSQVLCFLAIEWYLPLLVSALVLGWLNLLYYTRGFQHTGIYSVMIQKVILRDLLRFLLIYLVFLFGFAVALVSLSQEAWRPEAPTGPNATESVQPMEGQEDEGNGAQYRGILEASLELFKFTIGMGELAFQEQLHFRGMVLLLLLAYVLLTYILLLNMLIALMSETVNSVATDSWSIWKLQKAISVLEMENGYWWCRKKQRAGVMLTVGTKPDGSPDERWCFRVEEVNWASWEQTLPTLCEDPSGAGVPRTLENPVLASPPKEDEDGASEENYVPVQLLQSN
# human TRPM8 (hTRPM8) = human TRPM8 (hTRPM8) (Homo sapiens, UniProt Q7Z2W7)
# Sequence of human TRPM8 (hTRPM8) (Q7Z2W7 whole entry): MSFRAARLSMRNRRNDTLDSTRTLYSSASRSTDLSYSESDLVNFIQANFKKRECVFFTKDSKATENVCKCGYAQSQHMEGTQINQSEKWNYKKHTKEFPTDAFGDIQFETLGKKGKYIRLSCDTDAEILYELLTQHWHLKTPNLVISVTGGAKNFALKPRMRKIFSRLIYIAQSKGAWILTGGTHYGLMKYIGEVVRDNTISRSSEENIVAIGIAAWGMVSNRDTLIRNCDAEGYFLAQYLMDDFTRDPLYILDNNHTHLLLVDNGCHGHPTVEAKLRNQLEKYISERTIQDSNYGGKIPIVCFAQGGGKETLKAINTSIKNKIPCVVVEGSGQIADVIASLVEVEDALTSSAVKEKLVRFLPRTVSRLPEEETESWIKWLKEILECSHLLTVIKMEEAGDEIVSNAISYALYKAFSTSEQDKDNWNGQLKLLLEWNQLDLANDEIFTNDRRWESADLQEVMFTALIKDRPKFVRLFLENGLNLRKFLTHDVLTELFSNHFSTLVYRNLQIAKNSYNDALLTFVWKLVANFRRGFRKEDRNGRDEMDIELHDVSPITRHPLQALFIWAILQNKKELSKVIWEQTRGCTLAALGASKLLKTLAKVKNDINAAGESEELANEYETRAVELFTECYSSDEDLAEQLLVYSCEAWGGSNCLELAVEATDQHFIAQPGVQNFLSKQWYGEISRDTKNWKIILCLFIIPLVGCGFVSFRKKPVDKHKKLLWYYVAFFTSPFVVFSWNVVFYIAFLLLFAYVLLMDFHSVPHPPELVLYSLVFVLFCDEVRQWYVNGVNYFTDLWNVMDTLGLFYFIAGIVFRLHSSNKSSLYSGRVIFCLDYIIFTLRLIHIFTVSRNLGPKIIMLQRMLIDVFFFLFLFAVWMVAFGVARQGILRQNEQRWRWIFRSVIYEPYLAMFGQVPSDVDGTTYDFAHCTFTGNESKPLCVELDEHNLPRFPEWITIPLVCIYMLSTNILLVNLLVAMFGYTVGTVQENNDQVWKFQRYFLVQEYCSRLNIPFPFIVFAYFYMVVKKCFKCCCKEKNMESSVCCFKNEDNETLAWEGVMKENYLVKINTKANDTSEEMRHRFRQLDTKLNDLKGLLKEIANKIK
# hTRPV1 = hTRPV1 (Homo sapiens, UniProt Q8NER1)
# Sequence of hTRPV1 (Q8NER1 whole entry): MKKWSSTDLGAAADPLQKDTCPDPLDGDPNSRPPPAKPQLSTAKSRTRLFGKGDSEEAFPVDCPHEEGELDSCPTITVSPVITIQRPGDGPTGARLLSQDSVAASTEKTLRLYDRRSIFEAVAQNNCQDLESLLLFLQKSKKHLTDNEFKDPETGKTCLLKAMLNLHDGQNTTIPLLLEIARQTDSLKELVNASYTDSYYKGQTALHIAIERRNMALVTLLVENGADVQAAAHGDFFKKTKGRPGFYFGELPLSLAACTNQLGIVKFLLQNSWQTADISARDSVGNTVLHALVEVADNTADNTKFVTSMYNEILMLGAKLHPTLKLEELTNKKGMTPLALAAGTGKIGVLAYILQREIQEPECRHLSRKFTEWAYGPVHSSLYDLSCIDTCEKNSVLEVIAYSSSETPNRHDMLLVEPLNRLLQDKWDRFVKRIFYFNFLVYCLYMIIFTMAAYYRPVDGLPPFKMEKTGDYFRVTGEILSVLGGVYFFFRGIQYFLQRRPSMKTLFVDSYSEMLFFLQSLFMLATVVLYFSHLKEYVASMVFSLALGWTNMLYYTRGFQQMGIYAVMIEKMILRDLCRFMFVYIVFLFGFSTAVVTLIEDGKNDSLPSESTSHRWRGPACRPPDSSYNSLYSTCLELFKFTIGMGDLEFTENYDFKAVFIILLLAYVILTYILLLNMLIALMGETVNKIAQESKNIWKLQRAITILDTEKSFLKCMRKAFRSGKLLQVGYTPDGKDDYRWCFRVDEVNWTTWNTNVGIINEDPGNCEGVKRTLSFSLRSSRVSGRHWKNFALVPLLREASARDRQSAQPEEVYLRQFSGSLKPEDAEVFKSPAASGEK
# hTRPA1 = hTRPA1 (Homo sapiens, UniProt O75762); settings: for inhibition of hTRPA1 activation by menthol and allyl isothiocyanate: compound at 1 mM, menthol 1 mM and allyl isothiocyanate 10 uM
# Sequence of hTRPA1 (O75762 whole entry): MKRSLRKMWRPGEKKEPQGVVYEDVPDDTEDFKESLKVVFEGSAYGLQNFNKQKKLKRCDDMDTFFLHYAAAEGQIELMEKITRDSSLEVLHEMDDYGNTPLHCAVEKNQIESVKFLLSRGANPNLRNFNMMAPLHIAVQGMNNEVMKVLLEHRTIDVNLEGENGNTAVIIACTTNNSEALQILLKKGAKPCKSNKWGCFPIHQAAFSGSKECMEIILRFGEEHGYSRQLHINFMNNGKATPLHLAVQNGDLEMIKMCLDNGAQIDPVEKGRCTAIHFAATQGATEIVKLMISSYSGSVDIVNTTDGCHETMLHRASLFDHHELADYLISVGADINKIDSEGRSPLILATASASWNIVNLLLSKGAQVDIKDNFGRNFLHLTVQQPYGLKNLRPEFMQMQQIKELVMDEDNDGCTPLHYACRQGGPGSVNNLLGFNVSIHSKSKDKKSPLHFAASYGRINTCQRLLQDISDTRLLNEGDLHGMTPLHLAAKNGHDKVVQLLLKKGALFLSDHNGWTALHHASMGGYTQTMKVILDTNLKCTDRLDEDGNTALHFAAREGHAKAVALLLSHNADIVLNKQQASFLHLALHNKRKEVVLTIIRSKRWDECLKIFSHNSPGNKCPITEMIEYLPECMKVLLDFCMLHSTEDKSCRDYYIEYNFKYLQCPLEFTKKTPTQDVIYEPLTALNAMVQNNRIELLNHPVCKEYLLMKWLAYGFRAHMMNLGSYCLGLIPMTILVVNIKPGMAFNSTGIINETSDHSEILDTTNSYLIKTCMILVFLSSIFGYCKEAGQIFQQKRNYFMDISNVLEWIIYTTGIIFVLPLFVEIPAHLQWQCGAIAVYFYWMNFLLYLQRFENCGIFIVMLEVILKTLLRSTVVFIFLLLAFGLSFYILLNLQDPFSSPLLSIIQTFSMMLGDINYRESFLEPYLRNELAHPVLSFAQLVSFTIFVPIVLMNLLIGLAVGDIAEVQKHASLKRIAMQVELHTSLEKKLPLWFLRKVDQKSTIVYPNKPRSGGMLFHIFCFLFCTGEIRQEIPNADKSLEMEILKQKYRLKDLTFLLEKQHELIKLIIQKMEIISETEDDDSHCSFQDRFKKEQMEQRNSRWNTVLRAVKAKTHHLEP
# pain and itch responses = settings: mice
Structure (SMILES),activation of hTRPA1 (hTRPA1),inhibition of hTRPA1 activation by menthol and allyl isothiocyanate (hTRPA1),other results
"CC12CCC(CC1)C(C)(C)O2 [1,8-cineole]",–,–,activation of hTRPV2 (hTRPV2): did no( activate; activation of human TRPM8 (human TRPM8 (hTRPM8)): activates; activation of hTRPV1 (hTRPV1): did no( activate
CC1(C)[C@@H]2CC[C@@]1(C)[C@](C)(O)C2 [2-methylosoborneol],did not activate,completely inhibited,–
CC1(C)C2CCC1(C)C(O)C2 (stereo not shown) [borneol],did not activate,completely inhibited,–
CC12CCC(CC1=O)C2(C)C (stereo not shown) [camphor],did not activate,–,–
CC12CCC(C1)C(C)(C)C2O (stereo not shown) [fenchyl alcohol],did not activate,completely inhibited,–
O=C1CC2CC[C@H]1C2 [norcamphor],did not activate,–,–
CCCCCCCC/C=C\CCCCCCCC(=O)O [oleic acid],–,–,pain and itch responses (pain and itch responses): inhibited; TRPV1 activity (TRPV1): inhibited
